Test results from the NIST ThermoML archive (doi:10.1021/je7004787).
Numbers after ± are expanded uncertainties.

Assay: wn = mass fraction of the nth substance listed
Conditions: 298.15 K, 101 kPa, Liquid; for viscosity: Capillary tube (Ostwald / Ubbelohde) method; for mass density: Pycnometric method

Row | SMILES | viscosity (w1 = 0.1) | viscosity (w1 = 0.2) | viscosity (w1 = 0.3) | viscosity (w1 = 1) | mass density (w1 = 0.1) | mass density (w1 = 0.2) | mass density (w1 = 0.3) | mass density (w1 = 1) | viscosity (w2 = 0) | mass density (w2 = 0)
1 | C1COCCO1 [1,4-dioxane] + C1CCOC1 | 0.49 ± 0.014 mPa·s | 0.51 ± 0.014 mPa·s | 0.53 ± 0.015 mPa·s | 1.2 ± 0.031 mPa·s | 894.1 ± 4.5 kg/m3 | 907.1 ± 4.6 kg/m3 | 919 ± 4.8 kg/m3 | 1030.5 ± 6 kg/m3 |  | 
2 | C1CCOC1 [tetrahydrofuran] + C1COCCO1 |  |  |  |  |  |  |  |  | 0.463 ± 0.013 mPa·s | 880.7 ± 4.4 kg/m3
